These results are taken from US20040086942A1, “Ige receptor antagonists” (priority 2003, published 2004).

The assay concerns the target T1, alpha subunit of the human FcεRI receptor (Homo sapiens, UniProt P12319).
T1 construct: expressed in transfected cells; host or cells: Chinese hamster ovary (CHO FcεRI+) cells
T1 sequence (P12319 26-257): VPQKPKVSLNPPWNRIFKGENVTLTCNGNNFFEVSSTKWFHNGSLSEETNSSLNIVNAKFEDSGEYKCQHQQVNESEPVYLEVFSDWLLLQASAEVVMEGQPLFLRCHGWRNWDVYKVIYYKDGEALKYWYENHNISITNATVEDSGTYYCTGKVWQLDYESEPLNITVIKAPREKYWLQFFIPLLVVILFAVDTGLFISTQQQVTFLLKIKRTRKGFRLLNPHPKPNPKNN
The experiment in a line: cell-based 125I-IgE binding inhibition assay on CHO FcεRI+ cells. The protocol:
. The following day the cells were rinsed three times with PBS and then once with F12/DMEM. Peptide stocks were reconstituted in 100 mM Hepes buffered water, pH 7.2, at a concentration of 5 mg/mL. Working concentrations of the peptide were diluted in assay buffer (see below). 75 ul, of a desired concentration of peptide was added to the top row of a separate 96 well microtiter plate and serially diluted 1:3 in 50 uL of the assay buffer (F12/DMEM, 1% BSA, 0.05% NaN3 and […] Hepes pH 7.2). Starting concentrations ranged from 50-500 uM. Next, 50 uL of the diluted peptide was transferred to the 96 microtiter well plate containing a monolayer of CHO FcεRI+ cells. After a 1 hour incubation at room temperature, 50 uL of ^125I-IgE (1.5 nM) was added to each well and incubated for an additional 45-60 minutes at 4° C. followed by 5 washes with 200 uL of assay buffer. Cells were solubilized with 200 uL of 1 N NaOH and transferred to a 96 microtiter tube for counting in a gamma counter to determine counts bound. The data were plotted using KaleidaGraph 3.0 and fitted using 4-parameter fits. IC50 values were determined for each peptide.
Six peptides based on selected clones from library #516 were synthesized and assayed for the ability to inhibit the binding of ^125I-IgE to a Chinese hamster ovary cell line expressing the alpha subunit of the IgE high affinity receptor, FcεRI. The peptides were synthesized as nine residue monomers and oxidized to allow the formation of a disulfide bridge resulting in a cyclic peptide. The size of each peptide was confirmed by mass spectrometry.

Where [1] appears, read: IgE-inhibition activity of synthetic peptides, read-out: Inhibition activity: C+hd 50 +l (uM) ± s.d.
The mark [2] stands for this setting: inhibition of labeled IgE-binding to CHO FcεRI+ cells, read-out: Mean IC50(uM) ± S.D.

Where two headings read alike, the source gives them in different places. Where a SMILES comes first, the peptide text is derived from it. Bridges are numbered along the chain shown (N, C = ends).

Turning to `CC[C@H](C)[C@H](NC(=O)[C@@H]1CSSC[C@H](NC(=O)[C@H](CC(C)C)NC(=O)[C@@H](NC(=O)CNC(=O)[C@@H](N)CCSC)[C@@H](C)O)C(=O)N[C@@H](CC(C)C)C(=O)N[C@@H](CCC(=O)O)C(=O)NCC(=O)N2CCC[C@H]2C(=O)N[C@@H](CCC(=O)O)C(=O)NCC(=O)N[C@@H](Cc2c[nH]c3ccccc23)C(=O)N[C@@H](Cc2ccccc2)C(=O)N1)C(=O)N[C@@H](CCC(=O)O)C(=O)N[C@@H](CO)C(=O)N[C@@H](C)C(=O)O` [MGTLCLEGPEGWFCIESA] (H-MGTLCLEGPEGWFCIESA-OH; disulfide 5-14), the IC50 (IGE037: initially, read-out: IC50) is > 160 µM.

With `CC(C)C[C@H](NC(=O)[C@H](C)N)C(=O)N[C@H]1CSSC[C@@H](C(=O)N[C@@H](Cc2ccc(O)cc2)C(=O)N[C@H](C(N)=O)C(C)C)NC(=O)[C@H](C(C)C)NC(=O)[C@H](CCC(=O)O)NC(=O)[C@@H]2CCCN2C1=O` [IGE035, ALCPEVCYV-nh2] (H-ALCPEVCYV-NH2; disulfide 3-7), the “inhibiting 125I-IgE binding to cell surface expressed FcεRI (in words)” value is given as “not active”. Under setting [1], the IC50 was > 500 µM.

For `CC[C@H](C)[C@H](NC(=O)[C@@H]1CSSC[C@H](NC(=O)[C@H](CCCNC(=N)N)NC(=O)[C@@H]2CCCN2C(=O)[C@H](CC(C)C)NC(=O)[C@@H](N)CC(N)=O)C(=O)N[C@@H]([C@@H](C)O)C(=O)N[C@@H](CCC(=O)O)C(=O)NCC(=O)N2CCC[C@H]2C(=O)N[C@@H](Cc2c[nH]c3ccccc23)C(=O)NCC(=O)N[C@@H](Cc2c[nH]c3ccccc23)C(=O)N[C@@H](C(C)C)C(=O)N1)C(=O)O` [IGE075, NLPRCTEGPWGWVCI] (H-NLPRCTEGPWGWVCI-OH; disulfide 5-14; N-terminus and C-terminus assumed), under setting [2], the IC50 stood at 1.4 ± 1.1 µM.

For the molecule `CC[C@H](C)[C@H](N)C(=O)N[C@H](C(=O)N[C@H]1CSSC[C@@H](C(=O)N[C@@H](Cc2ccc(O)cc2)C(=O)N[C@H](C(N)=O)C(C)C)NC(=O)[C@H](C(C)C)NC(=O)[C@H](CC(=O)O)NC(=O)[C@@H]2CCCN2C(=O)[C@@H]2CSSC[C@H](NC(=O)[C@H](CC(C)C)NC(=O)[C@H](CCCNC(=N)N)NC(=O)[C@@H]3CCCN3C1=O)C(=O)N[C@@H](Cc1ccc(O)cc1)C(=O)N[C@@H](CCC(=O)O)C(=O)N[C@@H](CC(C)C)C(=O)N[C@@H](CC(=O)O)C(=O)N[C@@H](Cc1ccc(O)cc1)C(=O)N[C@@H](CCC(=O)O)C(=O)N[C@@H](CC(C)C)C(=O)N2)C(C)C` [IGE141] (H-IVCPRLCYELDYELCPDVCYV-NH2; disulfide 3-19, 7-15), the “fold difference in activity relative to comparator peptide” value (comparator (parent/control peptide) as named in the sentence) turned out to be 2 fold.

As for `CSCC[C@H](NC(=O)[C@@H]1CSSC[C@H](NC(=O)[C@H](CCCNC(=N)N)NC(=O)[C@@H]2CCCN2C(=O)[C@H](CC(C)C)NC(=O)[C@@H](N)CC(N)=O)C(=O)N[C@@H]([C@@H](C)O)C(=O)N[C@@H](CCC(=O)O)C(=O)NCC(=O)N[C@@H](C)C(=O)N[C@@H](Cc2c[nH]c3ccccc23)C(=O)NCC(=O)N[C@@H](Cc2c[nH]c3ccccc23)C(=O)N[C@@H](C(C)C)C(=O)N1)C(=O)O` [IGE070, NLPRCTEGAWGWVCM] (H-NLPRCTEGAWGWVCM-OH; disulfide 5-14), the IC50 under setting [2] was > 500 µM.

As for `CC[C@H](C)[C@H](NC(=O)[C@@H]1CSSC[C@H](N)C(=O)N[C@@H](CC(C)C)C(=O)N[C@@H](CCC(=O)O)C(=O)NCC(=O)N2CCC[C@H]2C(=O)N[C@@H](Cc2c[nH]c3ccccc23)C(=O)NCC(=O)N[C@@H](Cc2c[nH]c3ccccc23)C(=O)N[C@@H](Cc2ccccc2)C(=O)N1)C(N)=O` [IGE045, CLEGPWGWFCI-nh2] (H-CLEGPWGWFCI-NH2; disulfide 1-10; N-terminus assumed), the IC50 under setting [2] was 300 ± 269 µM.

On to `CSCC[C@H](NC(=O)[C@@H]1CSSC[C@H](NC(=O)[C@H](CCCNC(=N)N)NC(=O)[C@@H]2CCCN2C(=O)[C@H](CC(C)C)NC(=O)[C@H](CC(N)=O)NC(C)=O)C(=O)N[C@@H]([C@@H](C)O)C(=O)N[C@@H](C)C(=O)NCC(=O)N2CCC[C@H]2C(=O)N[C@@H](Cc2c[nH]c3ccccc23)C(=O)NCC(=O)N[C@@H](Cc2c[nH]c3ccccc23)C(=O)N[C@@H](C(C)C)C(=O)N1)C(=O)N[C@@H](C)C(=O)N[C@@H](C)C(=O)N[C@@H](CC(=O)O)C(N)=O` [IGE059, AC-NLPRCTAGPWGWVCMAAD-nh2] (Ac-NLPRCTAGPWGWVCMAAD-NH2; disulfide 5-14), for which the “fold reduction in inhibition/binding” value (truncations and alanine substitutions of IGE063) is 6 fold.

With `CSCC[C@H](NC(=O)[C@@H]1CSSC[C@H](NC(=O)[C@H](CCCNC(=N)N)NC(=O)[C@@H]2CCCN2C(=O)[C@H](CC(C)C)NC(=O)[C@@H](N)CC(N)=O)C(=O)N[C@@H]([C@@H](C)O)C(=O)N[C@@H](CCC(=O)O)C(=O)NCC(=O)N2CCC[C@H]2C(=O)N[C@@H](Cc2c[nH]c3ccccc23)C(=O)NCC(=O)N[C@@H](Cc2c[nH]c3ccccc23)C(=O)N[C@@H](C(C)C)C(=O)N1)C(=O)N[C@@H](C)C(=O)N[C@@H](C)C(=O)N[C@@H](CC(=O)O)C(=O)O` [NLPRCTEGPWGWVCMAAD] (H-NLPRCTEGPWGWVCMAAD-OH; disulfide 5-14; N-terminus and C-terminus assumed), the “fold improvement over the EIQECTEGPWGWFCVGSG peptide” value is recorded as 40 fold and the “fold improvement over the MGTLCLEGPEGWFCIESA peptide” value is “greater than 160 fold”.

As for `CSCC[C@H](NC(=O)[C@@H]1CSSC[C@H](NC(=O)[C@H](CCCNC(=N)N)NC(=O)[C@@H]2CCCN2C(=O)[C@H](CC(C)C)NC(=O)[C@@H](N)CC(N)=O)C(=O)N[C@@H]([C@@H](C)O)C(=O)N[C@@H](CCC(=O)O)C(=O)NCC(=O)N2CCC[C@H]2C(=O)N[C@@H](Cc2c[nH]c3ccccc23)C(=O)NCC(=O)N[C@@H](Cc2c[nH]c3ccccc23)C(=O)N[C@@H](C(C)C)C(=O)N1)C(=O)N[C@@H](C)C(=O)N[C@@H](C)C(=O)N[C@@H](CC(=O)O)C(N)=O` [IGE043, NLPRCTEGPWGWVCMAAD-nh2] (H-NLPRCTEGPWGWVCMAAD-NH2; disulfide 5-14), the IC50 under setting [2] came to 1.4 ± 1 µM.

Turning to `CSCC[C@H](NC(=O)[C@@H]1CSSC[C@H](NC(=O)[C@@H]2CCCN2C(=O)[C@H](CC(C)C)NC(=O)[C@H](CC(N)=O)NC(C)=O)C(=O)N[C@@H]([C@@H](C)O)C(=O)N[C@@H](C)C(=O)NCC(=O)N2CCC[C@H]2C(=O)N[C@@H](Cc2c[nH]c3ccccc23)C(=O)NCC(=O)N[C@@H](Cc2c[nH]c3ccccc23)C(=O)N[C@@H](C(C)C)C(=O)N1)C(=O)N[C@@H](C)C(=O)N[C@@H](C)C(=O)N[C@@H](CC(=O)O)C(N)=O` [IGE060, Ac-NLPCTAGPWGWVCMAAD-nh2] (Ac-NLPCTAGPWGWVCMAAD-NH2; disulfide 4-13), under setting [2], the IC50 is > 500 µM.

As for `CC(=O)N[C@@H](C)C(=O)N[C@@H](CC(C)C)C(=O)N[C@H]1CSSC[C@@H](C(=O)N[C@@H](Cc2ccc(O)cc2)C(=O)N[C@H](C(N)=O)C(C)C)NC(=O)[C@H](C(C)C)NC(=O)[C@H](CCC(=O)O)NC(=O)[C@@H]2CCCN2C1=O` [IGE036, Ac-ALCPEVCYV-nh2] (Ac-ALCPEVCYV-NH2; disulfide 3-7), the “inhibiting 125I-IgE binding to cell surface expressed FcεRI (in words)” value is listed as “not active”. Besides, the IC50 under setting [1] was > 500 µM.
